The source made the active and inactive calls. The calls are words filed in the database; no cut-off is given here.
Columns and labels:
PC-12 [1] = assay: Neuritogenic activity in rat PC12 cells assessed as potentiation of 10 ng/ml NGF-induced neurite outgrowth at 40 uM after 96 hrs; type: functional, cell-based
PC-12 [2] = assay: Neuritogenic activity in rat PC12 cells assessed as appearance of short prominences at 40 uM after 48 hrs in presence of 10 ng/ml NGF; type: functional, cell-based
PC-12 [3] = assay: Neuritogenic activity in rat PC12 cells assessed as elongation of prominences at 40 uM after 72 hrs in presence of 10 ng/ml NGF; type: functional, cell-based
PC-12 [4] = assay: Neuritogenic activity in rat PC12 cells assessed as change in cell morphology at 40 uM up to 24 hrs in presence of 10 ng/ml NGF; type: functional, cell-based
PC-12 [5] = assay: Neuritogenic activity in rat PC12 cells assessed as potentiation of 20 ng/ml NGF-induced neurite outgrowth at 10 uM; type: functional, cell-based
PC-12 [6] = assay: Neuritogenic activity in rat PC12 cells assessed as potentiation of 10 ng/ml NGF-induced neurite outgrowth at 10 uM after 4 days NGF (reference value: 75.89 um); type: functional
PC-12 [7] = assay: Neuritogenic activity in rat PC12 cells assessed as potentiation of 10 ng/ml NGF-induced neurite outgrowth at 40 uM after 4 days (reference value: 75.89 um); type: functional
PC-12 [8] = assay: Neuritogenic activity in rat PC12 cells assessed as potentiation of 10 ng/ml NGF-induced neurite outgrowth at 1 uM after 4 days (reference value: 75.89 um); type: functional

For `COC1(C)C[C@@H]2OCC3=CCC[C@@H](CCOC(=O)Cc4cc(=O)oc5cc(N(C)C)ccc45)[C@]32O1` (stereo partly drawn), the Activity (PC-12 [1]) was “Active”, the Activity (PC-12 [2]) was “Active” and the Activity (PC-12 [3]) was “Active”. The Activity (PC-12 [4]) was “inactive”.

With `CC1(OC/C=C/c2ccccc2)C[C@@H]2OCC3=CCCC[C@]32O1` (stereo partly drawn) the Activity (PC-12 [5]) was “inactive”.

With `CCO[C@]1(C)C[C@@H]2OCC3=CCCC[C@]32O1` the Activity (PC-12 [6]) was 92.24 um and the Activity (PC-12 [7]) was 112.5 um.

Work on `CCCO[C@]1(C)C[C@@H]2OCC3=CCCC[C@]32O1` yielded an Activity (PC-12 [6]) of 65.35 um and an Activity (PC-12 [7]) of 76.62 um.

For `CCCO[C@@]1(C)C[C@@H]2OCC3=CCCC[C@]32O1`, the Activity (PC-12 [6]) was 75.46 um and the Activity (PC-12 [7]) was 84.11 um.

`CCO[C@@]1(C)C[C@@H]2OCC3=CCCC[C@]32O1` gave an Activity (PC-12 [6]) of 86.03 um and an Activity (PC-12 [7]) of 105.8 um.

`C=CCOC1(C)C[C@@H]2OCC3=CCCC[C@]32O1` (stereo partly drawn) was tested, and the Activity (PC-12 [5]) was “inactive”.

For `CO[C@@]1(C)C[C@@H]2OCC3=CCCC[C@]32O1`, the Activity (PC-12 [8]) was 91.58 um, the Activity (PC-12 [6]) was 101.6 um and the Activity (PC-12 [5]) was “Active”. The Activity (PC-12 [7]) was 122.4 um.

Work on `CCCCO[C@@]1(C)C[C@@H]2OCC3=CCCC[C@]32O1` yielded an Activity (PC-12 [6]) of 47.69 um and an Activity (PC-12 [7]) of 61.81 um.

With `CCCCO[C@]1(C)C[C@@H]2OCC3=CCCC[C@]32O1` the Activity (PC-12 [6]) was 55.82 um and the Activity (PC-12 [7]) was 72.88 um.

`CC1(OCc2ccccc2)C[C@@H]2OCC3=CCCC[C@]32O1` (stereo partly drawn) was tested, and the Activity (PC-12 [5]) was “inactive”.

`CO[C@]1(C)C[C@@H]2OCC3=CCCC[C@]32O1` was tested, and the Activity (PC-12 [8]) was 99.5 um, the Activity (PC-12 [6]) was 110.9 um and the Activity (PC-12 [5]) was “Active”. It also gave an Activity (PC-12 [7]) of 125.5 um.

`CC(C)=CCOC1(C)C[C@@H]2OCC3=CCCC[C@]32O1` (stereo partly drawn) was tested, and the Activity (PC-12 [5]) was “inactive”.

From ChEMBL document CHEMBL1955850, “Syntheses of structurally-simplified and fluorescently-labeled neovibsanin derivatives and analysis of their neurite outgrowth activity in PC12 cells” (2012)
